In US4102886A, “Process for the preparation of benzo(a)quinolizidine derivatives” (priority 1974, dated 1978):
Like-named read-outs stand apart in the source and are kept apart here.

Tests used:
[1] = Inhibition of kaolin-induced oedema; assay type: in vivo; settings: in vivo; LD50/ED50; read-out: Therapeutical index LD50/ED50, kaolin-oedema
Experimental: (§1) Inhibition of Kaolin- and carrageenin-induced oedema
(§2) The tests were carried out on groups each consisting of at least 10 animals. The percentage inhibition of oedema, in relation to the untreated controls, was determined for each of the animals, and the average values were calculated.

kaolin-induced oedema = test: Inhibition of kaolin-induced oedema; assay type: in vivo; settings: 2 hours
Experimental: as §1, §2

[2] = Inhibition of carrageenin-induced oedema; assay type: in vivo; settings: in vivo; LD50/ED50; read-out: Therapeutical index LD50/ED50, carrageenin-oedema
Experimental: as §1, §2

[3] = system: carrageenin-induced oedema; test: Inhibition of carrageenin-induced oedema; assay type: in vivo; settings: 1.5 hours
Experimental: as §1, §2

Cotton granuloma = Cotton granuloma test; assay type: in vivo; settings: 50 mg./kg.
[4] = system: serotonine-induced oedema; test: Tests performed on serotonine-induced oedema; assay type: in vivo
Experimental: Tests performed on serotonine-induced oedema
The tests were carried out on groups each consisting of 10 animals. The percentage inhibition of oedema, in relation to the untreated controls, was determined for each of the animals. The data listed in Table 3 are the averages of the inhibition values.

[5] = system: experimentally provoked fever; test: Antipyretic activity (experimentally provoked fever); assay type: in vivo; set-up: unit not given here
Text: Besides their antiphlogistic activities, some of the benzo(a)quinolizidine derivatives exert antipyretic effects as well. On the basis of the tests performed on experimentally provoked fever, the antipyretic activities of the compounds according to the invention surpass the effect of amidazophenum.

[6] = Analgesic effect by the hot-plate test; assay type: in vivo; settings: 50 mg./kg. p.o.
[7] = Analgesic effect by the writhing test; assay type: in vivo
central nervious system = test: Narcosis potentiating effect; assay type: in vivo
Acute toxicity tests = assay type: in vivo; settings: rat, in vivo, po; rats, Litchfield-Wildoxon method
Experimental: (§3) The acute toxicity values of the compounds were determined on rats, after oral administration. The LD50 values were calculated according to the Litchfield-Wildoxon method.

[8] = Toxicity tests performed with compound SC-118; assay type: in vivo; settings: rat, in vivo, CFY rats
Experimental: (§4) In order to give a more detailed information, in the following there are given the results of the toxicity tests performed with compound SC-118. The tests were carried out on CFY rats, each weighing 150 to 200 g.

CFY rats = test: Toxicity tests performed with compound SC-118; assay type: in vivo
Experimental: as §4

[9] = Determination of ulcer index
rats = test: Acute toxicity tests; assay type: in vivo; settings: p.o., Litchfield-Wildoxon method
Experimental: as §3

[10] = in vivo
[11] = 25 mg./kg. p.o., 1 hour after administration
[12] = 25 mg./kg. p.o., 2 hours after administration
[13] = 25 mg./kg. p.o., 3 hours after administration
[14] = 50 mg./kg. p.o., 1 hour after administration
[15] = 50 mg./kg. p.o., 2 hours after administration
[16] = 50 mg./kg. p.o., 3 hours after administration

With `N#CCCC1CN2CCc3cc4c(cc3C2CC1=O)OCO4` (stereo not drawn) [SC-118, 2-Oxo-3-(β-cyano-ethyl)-9,10-methylenedioxy-1,2,3,4,6,7-hexahydro-11bH-benzo(a)quinolisidine] the selectivity ratio [1] was 29.2, the “Inhibition of kaolin-induced oedema 2 hours after administration” value (kaolin-induced oedema; 25 mg./kg. p.o.) was 18.1% and the “Inhibition of kaolin-induced oedema 2 hours after administration” value (kaolin-induced oedema; 50 mg./kg. p.o.) was 27.5%. The “Inhibition of kaolin-induced oedema 2 hours after administration” value (kaolin-induced oedema; 75 mg./kg. p.o.) was 43.7%, the “Inhibition of kaolin-induced oedema 2 hours after administration” value (kaolin-induced oedema; 100 mg./kg. p.o.) was 53.4% and the selectivity ratio [2] was 22.6. For the same molecule, the “Inhibition of carrageenin-induced oedema 1.5 hours after administration” value ([3]; 25 mg./kg. p.o.) was 22.0%, the “Inhibition of carrageenin-induced oedema 1.5 hours after administration” value ([3]; 50 mg./kg. p.o.) was 30.6% and the “Inhibition of carrageenin-induced oedema 1.5 hours after administration” value ([3]; 75 mg./kg. p.o.) was 47.7%. The “Inhibition of carrageenin-induced oedema 1.5 hours after administration” value ([3]; 100 mg./kg. p.o.) was 52.7%, the “Effect, % (cotton granuloma test)” value (Cotton granuloma) was 26.4% and the “Percentage inhibition 1 hour after administration (serotonine-induced oedema)” value (“Percentage inhibition 1 hour” below) ([4]; 25 mg./kg. p.o.) was 28.5%. The “Percentage inhibition 1 hour” value ([4]; 50 mg./kg. p.o.) was 42.1%, the “Percentage inhibition 1 hour” value ([4]; 75 mg./kg. p.o.) was 48.7% and the “Variation of body temperature” value [5, 11] was -1.67. For the same molecule, the “Variation of body temperature” value [5, 12] was -1.81, the “Variation of body temperature” value [5, 13] was -1.60 and the “Variation of body temperature” value [5, 14] was -2.75. For the same molecule, the “Variation of body temperature” value [5, 15] was -3.34, the “Variation of body temperature” value [5, 16] was -4.03 and the “Prolongation of the reaction time, % (2 hours after administration)” value (from here on “Prolongation of the reaction time, %”) [6] was 61.2%. The “Activity, % (reduction of the number of writhings in relation to the controls)” value ([7]; 50 mg./kg. p.o.) was 41.8%, the “Prolongation of the sleep period in relation to the untreated controls, %” value (central nervious system; 25 mg./kg. p.o.) was 96.4% and the “Prolongation of the sleep period in relation to the untreated controls, %” value (central nervious system; 50 mg./kg. p.o.) was 253.0%. For the same molecule, the LD50 (Acute toxicity tests) was 1410 mg/kg, the LD50 ([8]; female, read-out: LD50, f) was 1400 mg/kg and the LD50 ([8]; male, read-out: LD50, m) was 1420 mg/kg. The Dead animals/treated animals (CFY rats; 750 mg./kg., 24 hours, female) was 0/10, the Dead animals/treated animals (CFY rats; 750 mg./kg., 24 hours, male) was 0/10 and the Dead animals/treated animals (CFY rats; 750 mg./kg., 48 hours, female) was 0/10. The Dead animals/treated animals (CFY rats; 750 mg./kg., 48 hours, male) was 0/10, the Dead animals/treated animals (CFY rats; 750 mg./kg., 72 hours, female) was 0/10 and the Dead animals/treated animals (CFY rats; 750 mg./kg., 72 hours, male) was 0/10. The Dead animals/treated animals (CFY rats; 1000 mg./kg., 24 hours, female) was 2/10, the Dead animals/treated animals (CFY rats; 1000 mg./kg., 24 hours, male) was 1/10 and the Dead animals/treated animals (CFY rats; 1000 mg./kg., 48 hours, female) was 2/10. The Dead animals/treated animals (CFY rats; 1000 mg./kg., 48 hours, male) was 2/10, the Dead animals/treated animals (CFY rats; 1000 mg./kg., 72 hours, female) was 2/10 and the Dead animals/treated animals (CFY rats; 1000 mg./kg., 72 hours, male) was 2/10. For the same molecule, the Dead animals/treated animals (CFY rats; 1250 mg./kg., 24 hours, female) was 3/10, the Dead animals/treated animals (CFY rats; 1250 mg./kg., 24 hours, male) was 2/10 and the Dead animals/treated animals (CFY rats; 1250 mg./kg., 48 hours, female) was 3/10. The Dead animals/treated animals (CFY rats; 1250 mg./kg., 48 hours, male) was 3/10, the Dead animals/treated animals (CFY rats; 1250 mg./kg., 72 hours, female) was 3/10 and the Dead animals/treated animals (CFY rats; 1250 mg./kg., 72 hours, male) was 3/10. For the same molecule, the Dead animals/treated animals (CFY rats; 1500 mg./kg., 24 hours, female) was 6/10, the Dead animals/treated animals (CFY rats; 1500 mg./kg., 24 hours, male) was 5/10 and the Dead animals/treated animals (CFY rats; 1500 mg./kg., 48 hours, female) was 6/10. For the same molecule, the Dead animals/treated animals (CFY rats; 1500 mg./kg., 48 hours, male) was 5/10, the Dead animals/treated animals (CFY rats; 1500 mg./kg., 72 hours, female) was 6/10 and the Dead animals/treated animals (CFY rats; 1500 mg./kg., 72 hours, male) was 5/10. The Dead animals/treated animals (CFY rats; 1750 mg./kg., 24 hours, female) was 6/10, the Dead animals/treated animals (CFY rats; 1750 mg./kg., 24 hours, male) was 6/10 and the Dead animals/treated animals (CFY rats; 1750 mg./kg., 48 hours, female) was 8/10. The Dead animals/treated animals (CFY rats; 1750 mg./kg., 48 hours, male) was 8/10, the Dead animals/treated animals (CFY rats; 1750 mg./kg., 72 hours, female) was 8/10 and the Dead animals/treated animals (CFY rats; 1750 mg./kg., 72 hours, male) was 8/10. For the same molecule, the Dead animals/treated animals (CFY rats; 2000 mg./kg., 24 hours, female) was 10/10, the Dead animals/treated animals (CFY rats; 2000 mg./kg., 24 hours, male) was 10/10 and the Dead animals/treated animals (CFY rats; 2000 mg./kg., 48 hours, female) was 10/10. For the same molecule, the Dead animals/treated animals (CFY rats; 2000 mg./kg., 48 hours, male) was 10/10, the Dead animals/treated animals (CFY rats; 2000 mg./kg., 72 hours, female) was 10/10 and the Dead animals/treated animals (CFY rats; 2000 mg./kg., 72 hours, male) was 10/10. The Erosion ([9]; female) was 0/10, the Ulcer ([9]; female) was 0/10 and the Erosion ([9]; male) was 0/10. For the same molecule, the Ulcer ([9]; male) was 0/10.

In the case of `COc1ccc2c(c1)c(CC(=O)O)c(C)n2C(=O)c1ccc(Cl)cc1` [Indomethacine, reference compound], the selectivity ratio [1] is reported as 2.3, the “Inhibition of kaolin-induced oedema 2 hours after administration” value (kaolin-induced oedema; 10 mg./kg. p.o.) is reported as 27.2% and the selectivity ratio [2] is reported as 1.3. For the same molecule, the “Inhibition of carrageenin-induced oedema 1.5 hours after administration” value ([3]; 10 mg./kg. p.o.) was 26.7%, the “Percentage inhibition 1 hour” value ([4]; 25 mg./kg. p.o.) was 1.4% and the “Prolongation of the reaction time, %” value [6] was “no evaluable effect can be”. The LD50 (rats) was 12 mg/kg, the Erosion ([9]; female) was 1/10 and the Ulcer ([9]; female) was 3/10. The ulcerogeneous effect ([9]; in words) was “marked ulcerogeneous effect”, the Erosion ([9]; male) was 1/10 and the Ulcer ([9]; male) was 3/10.

For `CCCCC1C(=O)N(c2ccccc2)N(c2ccccc2)C1=O` [Phenylbutazone], the “Inhibition of kaolin-induced oedema 2 hours after administration” value (kaolin-induced oedema; 50 mg./kg. p.o.) was 27.5%, the “Inhibition of carrageenin-induced oedema 1.5 hours after administration” value ([3]; 50 mg./kg. p.o.) was 24.3% and the “Effect, % (cotton granuloma test)” value (Cotton granuloma) was 19.6%. The “Percentage inhibition 1 hour” value ([4]; 100 mg./kg. p.o.) was 10.2%, the “Variation of body temperature” value [5, 11] was -0.82 and the “Variation of body temperature” value [5, 12] was -0.84. The “Variation of body temperature” value [5, 13] was -0.73, the “Variation of body temperature” value [5, 14] was -1.05 and the “Variation of body temperature” value [5, 15] was -1.07. For the same molecule, the “Variation of body temperature” value [5, 16] was -0.76, the “Prolongation of the reaction time, %” value [6] was “no evaluable effect can be” and the “Activity, % (reduction of the number of writhings in relation to the controls)” value ([7]; 100 mg./kg. p.o.) was 17.6%. The LD50 (Acute toxicity tests) was 1180 mg/kg and the Erosion [10] was 0/10.
